For series [1], the system named is Candida albicans TA. Briefly: Protective effect against Candida albicans infection in mice (oral, ED50 from survival rate). In kind it is in vivo. Conditions: Crj: CDF1 mice inoculated i.v. with minimum lethal dose of Candida albicans TA, single oral dose immediately after infection as 30% HPCD solution, Reed and Muench method from survival rate 7 days after infection; for ED50: 168 h. How it is done:
Test Method: Five-week-old Crj: CDF1 mice were inoculated with the minimum lethal dose of Candida albicans TA intravenously. The test compounds were administered orally once immediately after infection as a 30% HPCD (hydroxypropyl-β-cyclodextrin) solution. The activity was expressed in terms of ED50 value calculated by the Reed and Muench method from the survival rate 7 days after infection.

As for “1-[(1R,2R)-2-(2,4-difluorophenyl)-2-hydroxy-1-methyl-3-(1H-1,2,4-triazol-17 yl)propyl]-3-[4-(1H-1,2,4-triazol-1-yl)phenyl]-2-imidazolidinone [Compound 10]”, in series [1], the “ED50 (mg/kg) PO” value is recorded as 0.32 mg/kg.

With “1-[(1R,2R)-2-(2,4-difluorophenyloy)-2-hydroxy-1-methyl-3-(1H-1,2,4-triazol-1-yl)propyl]-3-[4-(2H-1,2,3-triazol-2-yl)phenyl]-2-imidazolidinone [Compound 14]”, in series [1], the “ED50 (mg/kg) PO” value was found to be 0.32 mg/kg.

Take “1-[(1R,2R)-2-(2-fluorophenyl)-2:-hydroxy-1-methyl-3-(1H-1,2,4-triazol-1-yl)propyl]-3-[4-(1H-1-tetrazolyl)phenyl]-2(1H,3H)-imidazolone [Compound 44]”: the “ED50 (mg/kg) PO” value in series [1] came to 0.39 mg/kg.

With “1-[((1R,2R)-2-(2,4-difluorophenyl)-2-hydroxy-1-methyl-3-(1H-1,2,4-triazol-1-yl)propyl]-3-[4-(1H-1,2,4-triazol-1-yl)phenyl]-2(1H,3H)-imidazolone [Compound 9]”, the “ED50 (mg/kg) PO” value in series [1] was 0.16 mg/kg.

Turning to `C[C@@H](n1ncn(-c2ccc(-n3cncn3)cc2)c1=O)[C@](O)(Cn1cncn1)c1ccc(F)cc1F` [Compound 5, 2-[(1R,2R)-2-(2,4-difluorophenyl)-2-hydroxy-1-methyl-3-(1H-1,2,4-triazol-1-yl)propyl]-4-[4-(1H-1,2,4-triazol-1-yl)phenyl]-3(2H,4H)-1,2,4-triazolone], the melting point fell in the range of 182 to 184 °C. For the same compound, the ED50 in series [1] worked out at 0.22 mg/kg.

On to `C[C@@H](n1ncn(-c2ccc(-n3ccnn3)cc2)c1=O)[C@](O)(Cn1cncn1)c1ccc(F)cc1F` [Compound 6, 2-[(1R,2R)-2-(2,4-difluorophenyl)-2-hydroxy-1-methyl-3-(1H-1,2,4-triazol-1-yl)propyl]-4-[4-(1H-1,2,3-triazol-1-yl)phenyl]-3(2H,4H)-1,2,4-triazolone], for which the melting point fell in the range of 219 to 220 °C. The compound also registered an ED50 in series [1] of 0.35 mg/kg.

For the compound `C[C@@H](n1ncn(-c2ccc(-n3nccn3)cc2)c1=O)[C@](O)(Cn1cncn1)c1ccc(F)cc1F` [Compound 7, 2-[(1R,2R)-2-(2,4-difluorophenyl)-2-hydroxy-1-methyl-3-(1H-1,2,4-triazol-1-yl)propyl]-4-(4-(2H-1,2,3-triazol-2-yl)phenyl]-3(2H,4H)-1,2,4-triazolone], the melting point fell in the range of 213 to 215 °C. Also, it took a dose of 0.096 mg/kg to reach the 50% effect level in series [1] (ED50).

Compound `C[C@@H](n1ccn(-c2ccc(-n3ccnn3)cc2)c1=O)[C@](O)(Cn1cncn1)c1ccc(F)cc1F` [Compound 11, 1-[(1R,2R)-2-(2,4-difluorophenyl)-2-hydroxy-1-methyl-3-(1H-1,2,4-triazol-1-yl)propyl]-3-[4-(1H-1,2,3-triazol-1-yl)phenyl]-2(1H,3H)-imidazolone] displayed a melting point of 178 to 181 °C. The same compound had a 50% effective dose (ED50) in series [1] of 0.45 mg/kg.

As for `C[C@@H](N1CCN(c2ccc(-n3ccnn3)cc2)C1=O)[C@](O)(Cn1cncn1)c1ccc(F)cc1F` [Compound 12, 1-[(1R,2R)-2-(2,4-difluorophenyl)-2-hydroxy-1-methyl-3-(1H-1,2,4-triazol-1-yl)propyl]-3-[4-(1H-1,2,3-triazol-1-yl)phenyl]-2-imidazolidinone], in series [1], the median effective dose (ED50) came out at 0.71 mg/kg.

Regarding `C[C@@H](n1ccn(-c2ccc(-n3nccn3)cc2)c1=O)[C@](O)(Cn1cncn1)c1ccc(F)cc1F` [Compound 13, 1-[(1R,2R)-2-(2,4-difluorophenyl)-2-hydroxy-1-methyl-3-(1H-1,2,4-triazol-1-yl)propyl]-3-[4-(2H-1,2,3-triazol-2-yl)phenyl]-2(1H,3H)-imidazolone], the melting point was in the range of 182 to 185 °C. For the same compound, in series [1], the ED50 is 0.18 mg/kg.

In series [1], `C[C@@H](n1ncn(-c2ccc(-n3cccn3)cc2)c1=O)[C@](O)(Cn1cncn1)c1ccc(F)cc1F` [Compound 19, 2-[(1R,2R)-2-(2,4-difluorophenyl)-2-hydroxy-1-methyl-3-(1H-1,2,4-triazol-1-yl)propyl]-4-[4-(1H-1-pyrazolyl)phenyl]-3(2H,4H)-1,2,4-triazolone] came in with a 50% effective dose (ED50) of 0.39 mg/kg.

For the compound `C[C@@H](n1ncn(-c2ccc(-n3ncnn3)cc2)c1=O)[C@](O)(Cn1cncn1)c1ccc(F)cc1F` [Compound 25, 2-[(1R,2R)-2-(2,4-difluorophenyl)-2-hydroxy-1-methyl-3-(1H-1,2,4-triazol-1-yl)propyl]-4-[4-(2H-2-tetrazolyl)phenyl]-3(2H,4H)-1,2,4-triazolone], the ED50 in series [1] is 0.088 mg/kg.

In series [1], `C[C@@H](n1ccn(-c2ccc(-n3ncnn3)cc2)c1=O)[C@](O)(Cn1cncn1)c1ccc(F)cc1F` [Compound 26, 1-[(1R,2R)-2-(2,4-difluorophenyl)-2-hydroxy-1-methyl-3-(1H-1,2,4-triazol-1-yl)propyl]-3-[4-(2H-2-tetrazolyl)phenyl]-2(1H,3H)-imidazolone] gave a median effective dose (ED50) of 0.16 mg/kg.

`C[C@@H](N1CCN(c2ccc(-n3ncnn3)cc2)C1=O)[C@](O)(Cn1cncn1)c1ccc(F)cc1F` [Compound 27, 1-[(1R,2R)-2-(2,4-difluorophenyl)-2-hydroxy-1-methyl-3-(1H-1,2,4-triazol-1-yl)propyl]-3-[4-(2H-2-tetrazolyl)phenyl]-2-imidazolidinone] registered a 50% effective dose (ED50) in series [1] of 0.18 mg/kg.

`C[C@@H](N1CCN(c2ccc(-n3ccnn3)cc2)C1=O)[C@](O)(Cn1cncn1)c1ccccc1F` [Compound 34, [(1R,2R)-2-(2-fluorophenyl)-2-hydroxy-1-methyl-3-(1H-1,2,4-triazol-1-yl)propyl]-3-[4-(1H-1,2,3-triazol-1-yl)phenyl]-2-imidazolidinone] showed an ED50 in series [1] of 0.8 mg/kg.

`C[C@@H](N1CCN(c2ccc(-n3nccn3)cc2)C1=O)[C@](O)(Cn1cncn1)c1ccccc1F` [Compound 35, 1-[(1R,2R)-2-(2-fluorophenyl)-2-hydroxy-1-methyl-3-(1H-1,2,4-triazol-1-yl)propyl]-3-[4-(2H-1,2,3-triazol-2-yl)phenyl]-2-imidazolidinone] came in with a melting point of 178 to 179 °C. In series [1], the ED50 is 0.71 mg/kg.

As for `C[C@@H](n1ccn(-c2ccc(-n3cncn3)cc2)c1=O)[C@](O)(Cn1cncn1)c1ccccc1F` [Compound 38, 1-[(1R,2R)-2-(2-fluorophenyl)-2-hydroxy-1-methyl-3-(1H-1,2,4-triazol-1-yl)propyl]-3-[4-[1H-1,2,4-triazol-1-yl)phenyl]-2(1H,3H)-imidazolone], the median effective dose (ED50) in series [1] is 0.5 mg/kg.

Turning to `C[C@@H](N1CCN(c2ccc(-n3cncn3)cc2)C1=O)[C@](O)(Cn1cncn1)c1ccccc1F` [Compound 39, 1-[(1R,2R)-2-(2-fluorophenyl)-2-hydroxy-1-methyl-3-(1H-1,2,4-triazol-1-yl)propyl]-3-[4-(1H-1,2,4-triazol-1-yl)phenyl]-2-imidazolidinone], the ED50 in series [1] was 0.5 mg/kg.

In series [1], `C[C@@H](n1ccn(-c2ccc(-n3ncnn3)cc2)c1=O)[C@](O)(Cn1cncn1)c1ccccc1F` [Compound 40, 1-[(1R,2R)-2-(2-fluorophenyl)-2-hydroxy-1-methyl-3-(1H-1,2,4-triazol-1-yl)propyl]-3-[4-(2H-2-tetrazolyl)phenyl]-2(1H,3H)-imidazolone] displayed an ED50 of 0.35 mg/kg.

In series [1], `C[C@@H](N1CCN(c2ccc(-n3ncnn3)cc2)C1=O)[C@](O)(Cn1cncn1)c1ccccc1F` [Compound 41, 1-[(1R,2R)-2-(2-fluorophenyl)-2-hydroxy-1-methyl-3-(1H-1,2,4-triazol-1-yl)propyl]-3-[4-(2H-2-tetrazolyl)phenyl]-2-imidazolidinone] had an ED50 of 0.8 mg/kg.

Take `C[C@@H](n1ccn(-c2ccc(-n3cnnn3)cc2)c1=O)[C@](O)(Cn1cncn1)c1ccc(F)cc1F` [Compound 42, 1-[(1R,2R)-2-(2,4-difluorophenyl)-2-hydroxy-1-methyl-3-(1H-1,2,4-triazol-1-yl)propyl]-3-[4-(1H-1-tetrazolyl)phenyl]-2(1H,3H)-imidazolone]: in series [1], the 50% effective dose (ED50) was 0.22 mg/kg.

Regarding `C[C@@H](N1CCN(c2ccc(-n3cnnn3)cc2)C1=O)[C@](O)(Cn1cncn1)c1ccc(F)cc1F` [Compound 43, 1-[(1R,2R)-2-(2,4— difluorophenyl)-2-hydroxy-1-methyl-3-(1H-1,2,4-triazol-1-yl)propyl]-3-[4-(1H-1-tetrazolyl)phenyl]-2-imidazolidinone], the ED50 in series [1] came to 0.89 mg/kg.

With `C[C@@H](N1CCN(c2ccc(-n3cnnn3)cc2)C1=O)[C@](O)(Cn1cncn1)c1ccccc1F` [Compound 45, 1-[(1R,2R)-2-(2-fluorophenyl)-2-hydroxy-1-methyl-3-(1H-1,2,4-triazol-1-yl)propyl]-3-[4-(1H-1-tetrazolyl)phenyl]-2-imidazolidinone], it took a dose of 0.45 mg/kg to reach the 50% effect level in series [1] (ED50).
